# Tests used:
# [1] = tested on: Explants from P12 Nrl-eGFP mice; experiment: P12 Nrl-eGFP mouse retinal explants, 5 DIV, immunofluorescence and EdU; assay type: cell-based
# Experimental: Previous loss of function genetic data has shown that Nr2e3 is required for rod photoreceptor development, but it is not known whether there is a continuing requirement for Nr2e3 in mature rods. […] To further examine the effects of PR1 at these late developmental stages, the effects of PR1 on P12 retinal explants by immunohistochemical analysis were studied (FIG. 8A). Explants from P12 Nrl-eGFP mice were cultured for 5 days in either DMSO or 1 μM PR1 containing media, and then fixed and processed for immunofluorescent labeling with anti-rhodopsin and anti-S opsin antibodies.
# To determine if PR1 affects retinal cells other than photoreceptors, bipolar cells (PKCα, Chx10), amacrine cells (HuCD), and Muller glia (Sox2) were quantified in explants treated with DMSO or 1 μM PR1 for 5 DIV. […] EdU (5-ethynyl-2′-deoxyuridine) was added to the cultures to determine whether PR1 might have a similar effect.
# Intact retinas without RPE from mice of various strains and ages as indicated were explanted on 0.4 μm pore tissue culture inserts (Millipore) as previously described (Ueki, Y., et al., P53 is required for the developmental restriction in Muller glial proliferation in mouse retina. Glia, 2012. 60(10): p. 1579-89; Ueki, Y., et al., A transient wave of BMP signaling in the retina is necessary for Muller glial differentiation. Development, 2015. 142(3): p. 533-43. Full media (DMEM/F12 (1:1) containing 1% dialyzed FBS, 1% Pen Strep, 0.3% D+ glucose, 2% B27, and 1% N2) changes were performed every other day and small molecules were used at 0.1 μM to 10 μM. Where indicated, EdU (Invitrogen) was included in the media at 5 μg/mL and visualized by staining with the Click-iT EdU Alexa Fluor kit (Thermo Fisher Scientific). For human retinal explant cultures, tissue from 113 day post-conception fetuses was obtained from the University of Washington Birth Defects Laboratory and explanted on 0.4 μm pore tissue culture inserts (Millipore) in media (Neurobasal A with 1% FBS, 1% Pen Strep, 1% N2, 1% B27) containing 10 μM Photoregulin1 or an equal volume of DMSO.
# Retinal explants or eyecups were fixed in 4% PFA in 1×PBS for 20 minutes at room temperature and then cryoprotected in 30% sucrose in 1×PBS overnight at 4° C. Samples were embedded in OCT (Sakura Finetek), frozen on dry ice, and then sectioned at 14-16 μm on a cryostat (Leica). Slides were blocked with a solution containing 10% Normal Horse Serum (Vector Labs) and 0.5% Triton X-100 (Sigma-Aldrich) in 1×PBS for 1 hour at room temperature and then stained overnight at 4° C. with primary antibodies diluted in blocking solution. Slides were washed three times with 1×PBS the following day and then incubated in secondary antibodies (Life Technologies) diluted in blocking solution for 2 hours at room temperature, stained with DAPI (Sigma-Aldrich), washed, and coverslipped using Fluoromount-G (SouthernBiotech). An Olympus FluoView FV1000 was used for confocal microscopy.
# [2] = tested on: retinas of adult mice; experiment: Intravitreal injection in adult mice, qPCR and Western blot; assay type: in vivo, mouse
# Source text: Conditional deletion of Nr2e3 in mature photoreceptors has not been reported; however, deletion of Nrl in mature photoreceptors leads to a partial “reprogramming” of the rods: the cells have reduced rod gene expression and an increase in the expression of some cone genes. Because PR1 reduces rod gene expression, including Nrl, in rods even at late stages in their development (P12), it was postulated that PR1 might have similar effects in the retinas of adult mice. To determine if PR1 affects adult photoreceptor gene expression in vivo, intravitreal injections in one eye of an adult mouse (>P21) were made and compared expression to the other eye.
# (§1) RNA was isolated using TRIzol (Invitrogen) and cDNA was synthesized using the iScript cDNA synthesis kit (Bio-Rad) following an intervening DNase treatment with RQ1 RNase-free DNase (Promega). SSO Fast (Bio-Rad) was used for quantitative real-time PCR. For analysis, values were normalized to Gapdh and ΔΔCt between DMSO and compound-treated samples was expressed as percent of DMSO treated controls (100*2^ΔΔCt). Two-way Student's t-tests were performed on ΔCt values.
# Retinal explants or retinas were homogenized in lysis buffer (50 mM Tris, 100 mM NaCl, 5 mM EDTA, 0.1% SDS, 1% Triton X-100, 2.5% glycerol, and 1× protease inhibitor cocktail) and equal amounts of protein samples were loaded and run in a 4-20% SDS gel (Bio-Rad). Protein was transferred to a PVDF membrane (Thermo Fisher Scientific), blocked (5% BSA and 0.1% Tween 20 in 1×PBS) and stained with primary antibodies (Supplemental Table S2) and then HRP-conjugated secondaries (Bio-Rad) diluted in blocking solution. Signals were visualized on X-ray film with SuperSignal West Dura Extended Duration Substrate (Thermo Fisher Scientific) and quantified using ImageJ software (NIH).
# For intravitreal injections, adult mice (>P21) were anesthetized with isoflurane and injected with 1.5 μl of 10 mM PR1 using a 32-gauge Hamilton needle. Postnatal pups were injected intraperitoneally (IP) with 20 μl of 50 mM PR1 or 20 μl of DMSO at P2 or P3 with a 32-gauge Hamilton needle. Timed-pregnant dams were injected IP with 100 μl of 50 mM PR1 at E14 and E17 with a BD insulin syringe.
# [3] = tested on: retinas from Rho^P23H mice at P12; experiment: P12 Rho^P23H retinal explants, rod degeneration (ONL nuclei, Gnb1); assay type: cell-based, mouse; conditions: 1 μM, vs DMSO
# Source text: The effect of PR1 on Rho expression in adult rods might have potential as a way to slow the degeneration of these cells in dominant forms of retinitis pigmentosa, like Rho^P23H. In this disease, the affected individuals express a mutant form of rhodopsin that is likely inappropriately processed and ultimately leads to the death of the rods. […] The majority of rod cell death in the Rho^P23H transgenic line occurs between P14 and P21. Therefore, explants of retinas from Rho^P23H mice at P12 were made and treated the explants with 1 μM PR1 or DMSO (FIG. 9H). After 6 days in vitro, the retinas were processed for histology. The number of nuclei were counted in the ONL of each retina in the central region 100 μm from the optic nerve head. […] Gnb1 expression was also monitored as another measure of rod photoreceptor preservation because this is not directly affected by PR1 and thus serves as a surrogate for rod number. […]
# as §1, with “Two-way Student's t-tests were performed on ΔCt values.” left out
# [4] = adult mice (>P21), two intravitreal injections over four days, vs other eye
# [5] = adult retinas, intravitreal injection
compound,measurement,setting,value
"Cc1cc(C)cc(NC(=O)CCc2nc3sc4c(c3c(=O)[nH]2)CCCC4)c1 [PR1, N-(3,5-dimethylphenyl)-3-(4-oxo-5,6,7,8-tetrahydro-3H-[1]benzothiolo[2,3-d]pyrimidin-2-yl)propanamide]",number of S opsin+ cells in the ONL,"[1]; P12 explants, 1 μM, 5 days",increase in the number of S opsin+ cells
same,rhodopsin staining in Nrl-GFP-positive rods,"[1]; P12 explants, 1 μM, 5 days",dramatic decrease in rhodopsin staining
same,number of EdU labeled cells,"[1]; P12 explants, 5 DIV, EdU in media",increase in the number of EdU labeled cells
same,migration of the Muller glial (Sox2+) nuclei into the ONL,"[1]; explants, 1 μM, 5 DIV",increase in the migration
same,"bipolar cells (PKCα, Chx10), amacrine cells (HuCD), and Muller glia (Sox2)","[1]; explants, 1 μM, 5 DIV, vs DMSO",No differences
same,Rho mRNA expression by qPCR,[2]; [4],decreased
same,rhodopsin protein by Western blot,[2]; [4],decreased
same,S opsin,[2]; [5],not observed
same,expression of the cone photoreceptor marker TRβ2,[2]; [5],increased
same,"number of rod photoreceptors (nuclei) in the ONL, 100 μm from the optic nerve head",[3]; 6 days in vitro,nearly twice
same,Gnb1 expression (surrogate for rod number),[3],significantly more Gnb1 expression
